# Assay results published in US12351602B2, “Methods of inactivating viral contaminants” (Ichnos Sciences SA, priority 2017, dated 2025).
# System: MLV
# Test: VRV study, Arginine treatment of PA eluate
# Procedure: Based on the stability and activity studies reported in Example 1, the most promising viral inactivation methods were further tested for their ability to inactivate viruses. The effectiveness of the viral inactivation was evaluated by doing a spiking study at Bioreliance. Test samples were taken before and after each treatment and analyzed for viral titre. First, VRV study on Arginine treatment was carried out.
# Only one virus, MLV, which is a typical model virus used for biological products derived from CHO cell lines such as monoclonal antibody, was used for this study. A total of 7 runs were performed. PA eluate from development runs was used as starting material. Different stock buffers of Arginine at the different pH (pH 4.0, pH 4.75, pH 4.79 and pH 5.5) were used to reach the target pH and concentration. The samples were neutralized using 250 mM Histidine pH 12.0 buffer around pH 6.0 to stop the reaction.
# Log reduction values was calculated with respect to the neutralized load sample, a 5 plate large volume plating as well as a standard titration was performed on the t=60 min sample. The neutralized load hold sample was held at 16.0° C. to 20.0° C. for 60 minutes (runs 2, 4 and 6) or 120 minutes (runs 1, 3, 5 and 7).
smiles,measurement,setting,value
N=C(N)NCCC[C@H](N)C(=O)O [Arginine],virus clearance,Arginine treatment at pH 4.0,"effective (“effective”, when RF is greater than 4 log10)"
same,log10 reduction factor,"Run 5, Arginine concentration 0.38, pH 4.79, 120 min",no reduction
same,log10 reduction factor,"Run 7, Arginine concentration 0.8, pH 5.5, 120 min",no reduction
